Experimental data: patent US11213514B2, “Alpha-1-adrenergic receptor agonist therapy” (The Regents of the University of California, priority 2016, dated 2022)
Where “and” joins values, the source holds several entries; their conditions need not be identical. Equal values may be shown once.

Columns and labels:
[1] = tested on: mice lacking the α1A-AR (AKO); test: Doxorubicin cardiotoxicity in mice lacking the α1A-AR (survival, anatomy, conscious echocardiography)
Source text: FIGS. 2A-2B. […] On Day 7 the mice underwent echocardiography prior to sacrifice. FIG. 2A. Fractional shortening, a measure of contractile function, with representative M-mode echocardiogram images. […] FIG. 2B. Heart sections from some of these mice (i.e. wild type mice) stained with Masson Trichrome. Fibrosis (weighted average collagen content) was quantified using Aperio ImageScope software.
C57Bl6J mice were from Jackson Laboratory or from our breeding colony. α1A-AR knockout (AKO) mice from Paul C. Simpson were congenic on a C57Bl6J background for at least 10 generations and produced by heterozygous breeding in our animal facility. 8-12 week old males were used in all experiments. Female Sprague-Dawley rats with newborn litters were from Charles River. Animal care and experimental protocols were approved by the UNC IACUC and complied with Guide for the Care and the use of Laboratory Animals (National Research Council Committee for the Update of the Guide for the Care and Use of Laboratory Animals, 2011).
On Day 7, mice underwent echocardiography and were sacrificed by cervical dislocation after an overdose of isoflurane.
Conscious transthoracic echocardiography was performed on loosely restrained mice in the McAllister Heart Institute Animal Models Core using a VisualSonics Vevo 2100 ultrasound system (VisualSonics, Inc., Toronto, Ontario, Canada). Two-dimensional and M-mode echocardiography were performed in the parasternal long-axis view at the level of the papillary muscle. Left ventricular systolic function was assessed by fractional shortening (% FS=[(LVEDD−LVESD)/LVEDD]×100). Reported values represent the average of at least five cardiac cycles per mouse. Sonographers and investigators were blinded to mouse treatment condition during image acquisition and analysis.

[2] = tested on: Complex I, ATP synthase and Cytochrome C oxidase subunit transcripts; test: RNAseq transcript abundance of mitochondrial gene sets in mouse heart; format: in vivo
Method: (§1) FIGS. 3A-3E. […] FIG. 3A. […] FIG. 3B. […] FIG. 3C. […] FIG. 3E.
An omnibus test of transcript abundance across all groups was performed with DESeq2 with groups encoded as categorical variables. One hundred-one genes were identified as significant by meeting the q<0.05 threshold (the set of genes with a 5% false discovery rate). Note, genes of potential interest can be found in Table 4.
(§2) (FIG. 3B). […] (FIG. 3C).
RNAseq was performed at the Carolina Center for Genome Sciences High Throughput Sequencing Facility. Libraries were prepared using an Illumina RNA TruSeq kit for total RNA. Single read sequencing (1×100) was performed on an Illumina HiSeq 2000 system. QC-passed reads were aligned to the mouse reference genome (mm9) using MapSplice.3 The alignment profile was determined by Picard Tools v1.64 (broadinstitute.github.io/picard/). Aligned reads were sorted and indexed using SAMtools and translated to transcriptome coordinates then filtered for indels, large inserts, and zero mapping quality using UBU v1.0 (github.com/mozack/ubu). Transcript abundance estimates for each sample were performed using RSEM, an expectation-maximization algorithm4 using the UCSC knownGene transcript and gene definitions. Raw RSEM read counts for all RNAseq samples were normalized to the overall upper quartile.5 Gene level differential expression testing was performed using the method of Love et al. (2014) implemented in the R package DESeq2. Gene set level tests were performed using the method of Efron and Tibshirani (2006) and gene sets as defined in the molecular signatures database, mSigdb.6 .GEO accession number is pending.

PGC1α = test: qRT-PCR for PGC1α in mouse heart tissue; format: in vivo
Method: as §1, §2
Total RNA was isolated from cells and tissue (QiagenRNeasy Plus mini kit #74134) and analyzed using a NanoDrop (ThermoScientific). For qRT-PCR, one […]g of RNA was reverse transcribed using High Capacity cDNA Reverse Transcription Kit (Life Technologies #4368814). Two step qRT-PCR reactions contained 2% of the cDNA product. All reactions were performed in triplicate in a Roche 480 Light Cycler. Relative quantitation of PCR products used the ΔΔCt method relative to two validated reference genes (Tbp and Polr2a). Similar efficiencies were confirmed for all primers. All probes and primers were from Roche.

[3] = tested on: neonatal rat ventricular myocytes (NRVMs); test: Mitochondrial membrane potential (JC-1) in NRVMs; format: cell-based
Method: FIG. 6A-6C. […] FIG. 6A. Mitochondrial membrane potential was assessed using JC-1 and fluorescent intensity was quantified using a plate reader. Red indicates intact mitochondrial membrane potential; green indicates compromised mitochondrial membrane potential (relative). Lysates were blotted for selected regulators of apoptosis and mitochondrial cell death effectors. Representative Western blots and summary findings from 3 independent experiments with at least 2 wells per condition in each experiment are shown.
JC-1 exists as a green fluorescent monomer at low mitochondrial membrane potential and a red fluorescent aggregate at high mitochondrial membrane potential. […] (FIGS. 6A-6C).
Mitochondrial membrane potential: Mitochondrial membrane potential in NRVMs was determined by 5, 5′, 6, 6′-tetrachloro-1, 1′, 3, 3′-tetraethylbenzimidazolylcarbocyanine iodide (JC-1) reduction. Cells were stained with JC-1 (Mitoprobe, Cayman Chemical Company) according to the manufacturer's protocol. In brief, serum-starved NRVMs were treated with DOX or vehicle in the presence or absence of dabuzalgron. […] Cells were washed once with medium then analyzed by plate reader (CLARIOstar, BMG LABTECH, Germany). JC-1 green fluorescence was excited at 488 nm and emission was detected using a 530±40 nm filter. JC-1 red fluorescence was excited at 488 nm and emission was detected using a 613±20 nm filter.

[4] = tested on: neonatal rat ventricular myocytes; test: Myocyte death caused by oxidative stress with H2O2; format: cell-based; conditions: neonatal rat ventricular myocytes (FIG. 7)
[5] = α1A-KO mice, Dox 20 mg/kg i.p. + dabuzalgron 20 μg/kg/d gavage 7 days
[6] = α1A-KO mice, Dox + 1240 20 μg/kg/d, Day 7 echocardiography
[7] = DOX + dabuzalgron 10 μg/kg twice daily
[8] = dabuzalgron in the absence of DOX

SMILES: COc1cccc2c1C(=O)c1c(O)c3c(c(O)c1C2=O)C[C@@](O)(C(=O)CO)C[C@@H]3O[C@H]1C[C@H](N)[C@H](O)[C@H](C)O1 [DOX, doxorubicin]
- fractional shortening, DOX-treated AKO vs DOX-treated WT mice ([1]; mouse, in vivo): significantly lower
- 7-day survival ([1]; α1A-KO mice, Dox 20 mg/kg i.p. + vehicle gavage 7 days): 38% and 50%
- 7-day survival ([1]; α1A-KO mice, Dox 20 mg/kg i.p. + vehicle gavage 7 days, listed as Dox): 38%
- abundance of ATP synthase subunits (17 genes) ([2]; DOX 20 mg/kg, Day 7): decreased
- abundance of Complex I subunits (42 genes) ([2]; DOX 20 mg/kg, Day 7): decreased
- PGC1α abundance (PGC1α; mouse heart in vivo, DOX): decreased
- mitochondrial membrane potential (JC-1) ([3]; DOX for 4 hours): profound loss

SMILES: Cc1c(OCC2=NCCN2)ccc(Cl)c1NS(C)(=O)=O [dabuzalgron, N-[6-chloro-3-(4,5-dihydro-1H-imidazol-2-ylmethoxy)-2-methylphenyl]methanesulfonamide]
- effect on reduction in contractile function after DOX ([1]; AKO mice): not rescued
- effect of dabuzalgron on survival after DOX ([1]; AKO mice, DOX 20 mg/kg i.p., dabuzalgron 10 μg/kg twice daily 7 days): unaffected
- 7-day survival [1, 5]: 50%
- Body Wt Day 7 [1, 5]: 26.4 ± 1.2 g
- HW/BW [1, 5]: 0.39 ± 0.01 %
- HW/TL [1, 5]: 5.6 ± 0.2 mg/mm
- Heart Wt [1, 5]: 101 ± 5 mg
- Lung Wt/TL [1, 5]: 5.1 ± 0.2 mg/mm
- FS (Fractional Shortening) [1, 6]: 42 ± 2%
- HR (Heart Rate) [1, 6]: 618 ± 19 beats per minute
- expression of ATP synthase subunits after DOX [2, 7]: restored
- expression of Complex I subunits after DOX [2, 7]: restored
- expression of Cytochrome C oxidase subunits (25 genes) after DOX [2, 7]: increased
- ATP synthase subunit abundance [2, 8]: no significant effect
- Complex I subunit abundance [2, 8]: increased
- Cytochrome C (oxidase subunit) abundance [2, 8]: no significant effect
- PGC1α abundance (PGC1α; hearts of mice treated with DOX): increased
- PGC1α abundance (PGC1α; hearts of mice treated with vehicle control): increased
- effect on DOX-induced loss of mitochondrial membrane potential ([3]; DOX for 4 hours with dabuzalgron 10 μM): partially rescued
- myocyte death caused by oxidative stress with H2O2 [4]: prevents
